Test results taken from US8119635B2, “Diazabicyclic central nervous system active agents” (Abbott Laboratories, priority 2000, dated 2012).
Counter-ions that a name gives are not always drawn.

The compounds below were run against T1, neuronal nicotinic acetylcholine receptors (Rattus norvegicus, UniProt P09483+P12390) (assay: Binding of [3H]-cytisine to neuronal nicotinic acetylcholine receptors, crude synaptic membranes from whole rat brain). Conditions: not given.
T1 construct: crude synaptic membrane preparations from whole rat brain; from tissue; host or cells: whole rat brain, crude synaptic membranes
T1 sequence (P09483 31-630): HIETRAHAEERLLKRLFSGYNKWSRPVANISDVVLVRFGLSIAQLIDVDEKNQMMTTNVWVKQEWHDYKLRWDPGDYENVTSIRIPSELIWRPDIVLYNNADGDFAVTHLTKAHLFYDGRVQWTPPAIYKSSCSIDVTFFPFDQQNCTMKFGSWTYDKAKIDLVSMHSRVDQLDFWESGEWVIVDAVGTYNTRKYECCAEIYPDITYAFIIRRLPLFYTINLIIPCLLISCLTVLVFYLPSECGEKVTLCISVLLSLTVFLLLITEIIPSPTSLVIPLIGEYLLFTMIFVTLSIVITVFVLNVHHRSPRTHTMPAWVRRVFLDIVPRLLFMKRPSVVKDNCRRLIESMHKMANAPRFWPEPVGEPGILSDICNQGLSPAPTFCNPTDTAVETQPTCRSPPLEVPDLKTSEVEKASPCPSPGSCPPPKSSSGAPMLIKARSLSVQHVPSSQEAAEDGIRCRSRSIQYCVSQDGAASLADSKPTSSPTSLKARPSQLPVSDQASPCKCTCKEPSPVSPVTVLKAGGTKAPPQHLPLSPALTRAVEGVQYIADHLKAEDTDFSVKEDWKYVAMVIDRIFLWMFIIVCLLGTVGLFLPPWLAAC
T1 sequence (P12390 25-500): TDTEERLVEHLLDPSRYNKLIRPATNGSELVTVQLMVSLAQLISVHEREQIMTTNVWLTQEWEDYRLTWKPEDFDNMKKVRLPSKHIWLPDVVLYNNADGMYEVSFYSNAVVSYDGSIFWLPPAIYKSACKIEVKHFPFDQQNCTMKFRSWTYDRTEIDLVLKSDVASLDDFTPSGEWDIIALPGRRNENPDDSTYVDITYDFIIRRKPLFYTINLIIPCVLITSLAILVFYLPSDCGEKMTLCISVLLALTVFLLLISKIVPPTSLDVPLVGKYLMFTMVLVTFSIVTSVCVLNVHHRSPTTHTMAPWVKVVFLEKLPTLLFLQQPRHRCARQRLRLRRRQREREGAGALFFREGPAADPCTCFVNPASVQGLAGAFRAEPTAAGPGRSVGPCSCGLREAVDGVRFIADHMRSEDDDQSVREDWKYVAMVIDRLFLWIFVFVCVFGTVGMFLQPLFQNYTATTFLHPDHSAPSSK
Protocol: The In Vitro protocols for determination of nicotinic acetylcholine channel receptor binding potencies of ligands were determined as follows.
Washed membranes were stored at −80° C. prior to use. Frozen aliquots were slowly thawed and resuspended in 20 volumes of buffer (containing: 120 mM NaCl, 5 mM KCl, 2 mM MgCl2, 2 mM CaCl2 and 50 mM Tris-Cl, pH 7.4 @[…]). After centrifuging at 20,000×g for 15 minutes, the pellets were resuspended in 30 volumes of buffer.
The test compounds were dissolved in water to make 10 mM stock solutions. Each solution was then diluted (1:100) with buffer (as above) and further taken through seven serial log dilutions to produce test solutions from 10^−5 to 10^−11 M.
Samples were incubated for 60 minutes at 4° C., then rapidly filtered through Whatman GF/B filters presoaked in 0.5% polyethyleneimine using 3×4 mL of ice-cold buffer. The filters are counted in 4 mL of Ecolume® (ICN). Nonspecific binding was determined in the presence of 10 μM (−)-nicotine and values were expressed as a percentage of total binding. IC50 values were determined with the RS-1 (BBN) nonlinear least squares curve-fitting program and IC50 values were converted to Ki values using the Cheng and Prusoff correction (Ki=IC50/(1+[ligand]/Kd of ligand).
`N#Cc1cncc(N2C[C@H]3CN[C@H]3C2)c1` [Example 79, 5-[(1R,5R)-3,6-diazabicyclo[3.2.0]hept-3-yl]nicotinonitrile fumarate] gave a Ki of 0.12 nM. Compound `Clc1ccc(N2CC[C@H]3CNC[C@H]32)cn1` [Example 77, (3aS,6aS)-1-(6-chloro-3-pyridinyl)octahydropyrrolo[3,4-b]pyrrole fumarate] has a Ki of 19 nM. Compound `Clc1ccc(N2CC[C@@H]3CNC[C@@H]32)cn1` (relative stereo) [Example 16, cis-1-(6-chloro-3-pyridinyl)octahydropyrrolo[3,4-b]pyrrole hydrochloride] has a Ki of 23 nM. `Clc1ccc(N2CC[C@@H]3CNC[C@@H]32)cn1` [Example 73, (3aR,6aR)-1-(6-chloro-3-pyridinyl)octahydropyrrolo[3,4-b]pyrrole fumarate] gave a Ki of 24 nM. `COc1cc(N2C[C@H]3CNC[C@H]32)cnc1Br` [Example 95, (1R,5S)-6-(6-bromo-5-methoxy-3-pyridinyl)-3,6-diazabicyclo[3.2.0]heptane 4-methylbenzenesulfonate] showed a Ki of 0.12 nM. With `N#Cc1cncc(N2C[C@H]3CCNC[C@H]32)c1` [Example 61, 5-[(1S,6R)-3,8-diazabicyclo[4.2.0]oct-8-yl]nicotinonitrile fumarate] the Ki was 2.5 nM. Compound `Brc1cncc(N2C[C@@H]3CCN[C@@H]3C2)c1` [Example 31, (3aS,6aS)-5-(5-bromo-3-pyridinyl)octahydropyrrolo[3,4-b]pyrrole 4-methylbenzenesulfonate] has a Ki of 14 nM. `Clc1ccc(N2CC[C@H]3CN[C@H]3C2)cn1` [Example 49, (1R,6S)-3-(6-chloro-3-pyridinyl)-3,8-diazabicyclo[4.2.0]octane fumarate] gave a Ki of 0.02 nM. `N#Cc1cncc(N2CC[C@H]3CNC[C@H]32)c1` [Example 83, 5-((3aS,6aS)-hexahydropyrrolo[3,4-b]pyrrol-1(2H)-yl)nicotinonitrile fumarate] was tested, and the Ki was 97 nM. `Oc1cncc(N2C[C@H]3CNC[C@H]3C2)c1` [Example 6, cis-2-(5-hydroxy-3-pyridinyl)octahydropyrrolo[3,4-c]pyrrole dihydrochloride] was tested, and the Ki was 0.75 nM. Work on `Clc1cc(N2C[C@H]3CCN[C@H]3C2)cnc1Br` [Example 59, (3aR,6aR)-5-(6-bromo-5-chloro-3-pyridinyl)octahydropyrrolo[3,4-b]pyrrole fumarate] yielded a Ki of 0.35 nM. `Clc1ccc(N2C[C@H]3CNC[C@H]32)cn1` (relative stereo) [Example 46, (cis)-6-(6-chloro-3-pyridinyl)-3,6-diazabicyclo[3.2.0]heptane fumarate] was tested, and the Ki was 0.73 nM. In the case of `N#CCc1cc(N2C[C@H]3CCN[C@H]3C2)cnc1Br` [Example 66, [5-((3aR,6aR)-hexahydropyrrolo[3,4-b]pyrrol-5(1H)-yl)-2-bromo-3-pyridinyl]acetonitrile fumarate], the Ki is reported as 0.26 nM. Work on `Clc1ccc(N2C[C@H]3CNC[C@H]32)cn1` [Example 57, (1R,5S)-6-(6-chloro-3-pyridinyl)-3,6-diazabicyclo[3.2.0]heptane fumarate] yielded a Ki of 1.2 nM. Compound `Clc1ccc(N2C[C@H]3CN[C@H]3C2)cn1` [Example 80, (1R,5R)-3-(6-chloro-3-pyridinyl)-3,6-diazabicyclo[3.2.0]heptane fumarate] has a Ki of 0.17 nM. For `c1cncc(N2CC[C@@H]3CCN[C@@H]3C2)c1` (relative stereo) [Example 39, (cis)-6-(3-pyridinyl)octahydro-1H-pyrrolo[2,3-c]pyridine dihydrochloride], the Ki was 0.54 nM. `[N-]=[N+]=Nc1cncc(N2C[C@H]3CNC[C@H]32)c1` [Example 96, (1R,5S)-6-(5-azido-3-pyridinyl)-3,6-diazabicyclo[3.2.0]heptane fumarate] was tested, and the Ki was 1.9 nM. For `Clc1cc(N2C[C@@H]3CCN[C@@H]3C2)cnc1Cl` [Example 25, (3aS,6aS)-5-(5,6-dichloro-3-pyridinyl)octahydropyrrolo[3,4-b]pyrrole hydrochloride], the Ki was 1.4 nM. In the case of `c1cncc(N2CC[C@@H]3CNC[C@@H]32)c1` [Example 75, (3aR,6aR)-1-(3-pyridinyl)octahydropyrrolo[3,4-b]pyrrole fumarate], the Ki is reported as 6.9 nM. For `COc1cncc(N2C[C@@H]3CCN[C@@H]3C2)c1` [Example 32, (3aS,6aS)-5-(5-methoxy-3-pyridinyl)octahydropyrrolo[3,4-b]pyrrole 4-methylbenzenesulfonate], the Ki was 5.3 nM. `Clc1ccc(N2C[C@H]3NCC[C@H]32)cn1` [Example 19, (1R,5R)-6-(6-chloro-3-pyridinyl)-2,6-diazabicyclo[3.2.0]heptane bis(4-methylbenzenesulfonate)] showed a Ki of 576 nM. `CN1C[C@@H]2CN(c3ccc(Cl)nc3)C[C@@H]2C1` [Example 4, cis-2-(6-chloro-3-pyridinyl)-5-methyloctahydropyrrolo[3,4-c]pyrrole dihydrochloride] was tested, and the Ki was 36 nM. For `c1cncc(N2CC[C@H]3CNC[C@H]32)c1` [Example 78, (3aS,6aS)-1-(3-pyridinyl)octahydropyrrolo[3,4-b]pyrrole dihydrochloride], the Ki was 25 nM. Work on `CN1C[C@H]2CCN(c3ccc(Cl)nc3)[C@H]2C1` (relative stereo) [Example 17, cis-1-(6-chloro-3-pyridinyl)-5-methyloctahydropyrrolo[3,4-b]pyrrole hydrochloride] yielded a Ki of 31 nM.

Same assay, conditions: [3H]-CYT 1.25 nM, whole rat brain membranes, 60 minutes at 4° C.; IC50 converted to Ki by Cheng and Prusoff correction; read-out: Average Ki
Compound `c1cncc(N2C[C@@H]3CCNC[C@@H]32)c1` [Example 92, (1R,6S)-8-(3-pyridinyl)-3,8-diazabicyclo[4.2.0]octane 4-methylbenzenesulfonate] has a Ki of 0.12 nM. Work on `Clc1cc(N2C[C@H]3CCNC[C@H]32)cnc1Cl` [Example 93, (1S,6R)-8-(5,6-dichloro-3-pyridinyl)-3,8-diazabicyclo[4.2.0]octane 4-methylbenzenesulfonate] yielded a Ki of 0.3 nM. In the case of `Cc1cc(N2C[C@H]3CCNC[C@H]32)cnc1Cl` [Example 89, (1S,6R)-8-(6-chloro-5-methyl-3-pyridinyl)-3,8-diazabicyclo[4.2.0]octane fumarate], the Ki is reported as 0.24 nM. `c1cncc(N2CC[C@H]3NC[C@H]32)c1` [Example 18, (1R,5R)-2-(3-pyridinyl)-2,6-diazabicyclo[3.2.0]heptane bis(4-methylbenzenesulfonate)] gave a Ki of 154 nM. Work on `Oc1cncc(N2CC[C@H]3CNC[C@H]32)c1` [Example 82, (3aS,6aS)-1-(5-hydroxy-3-pyridinyl)octahydropyrrolo[3,4-b]pyrrole dihydrochloride] yielded a Ki of 363 nM. Work on `c1cncc(N2C[C@H]3NCC[C@H]32)c1` [Example 20, (1R,5R)-6-(3-pyridinyl)-2,6-diazabicyclo[3.2.0]heptane bis(4-methylbenzenesulfonate)] yielded a Ki of 122 nM. Compound `c1cncc(N2C[C@@H]3CCN[C@@H]3C2)c1` [Example 30, (3aS,6aS)-5-(3-pyridinyl)octahydropyrrolo[3,4-b]pyrrole 4-methylbenzenesulfonate] has a Ki of 2.9 nM. With `c1cncc(N2C[C@H]3CCNC[C@H]32)c1` [Example 91, (1S,6R)-8-(3-pyridinyl)-3,8-diazabicyclo[4.2.0]octane 4-methylbenzenesulfonate] the Ki was 1.1 nM. Compound `COc1cncc(N2C[C@H]3CCNC[C@H]32)c1` [Example 88, (1S,6R)-8-(5-methoxy-3-pyridinyl)-3,8-diazabicyclo[4.2.0]octane fumarate] has a Ki of 0.56 nM. Work on `Clc1cc(N2C[C@@H]3CCNC[C@@H]32)cnc1Cl` [Example 94, (1R,6S)-8-(5,6-dichloro-3-pyridinyl)-3,8-diazabicyclo[4.2.0]octane 4-methylbenzenesulfonate] yielded a Ki of 0.12 nM.
